# Reference: patent US8957047B2, “GLA monotherapy for use in cancer treatment” (Immune Design Corp., priority 2013, dated 2015)
# Experiments:
# B16F10 cells [1] = experiment: B16F10 footpad model, GLA i.t. plus anti-CD40 i.p. (Example 6); type: in vivo, C57B1/6 mice; conditions: GLA alone: 5 μg GLA-SE/2% SE i.t. from Day 4 every 3-4 days; FIG. 8A
# Method: Mice were given i.t. administrations of 5 μg GLA-SE/2% SE (or 2% SE vehicle control) plus i.p. administrations of anti-CD40 (or 2A3 control antibody) at 100 μg, starting on Day 4 and every 3-4 days thereafter until the end of study (FIG. 8A).
# B16F10 cells [2] = experiment: B16F10 footpad model, GLA plus checkpoint inhibitor (Example 5); type: in vivo, C57B1/6 mice; conditions: GLA alone: 5 μg GLA-SE/2% SE i.t. from Day 4 every 3-4 days; FIG. 7B
# Method: Mice were given i.t. administrations of 5 μg GLA-SE/2% SE (or 2% SE vehicle control) plus intraperitoneal (i.p.) administrations of a CPI [anti-PDL1, anti-PD1, anti-CTLA4 (clone 9H10), anti-CTLA4 (clone 9D9), or LTF2 control antibody] at 100 μg starting on Day 4 and every 3-4 days thereafter until the end of study.
# B16 melanoma cells = experiment: Murine B16 melanoma model, subcutaneous inoculation (Example 1); type: in vivo, mice; conditions: 5 μg GLA-SE i.m. on Day 0, Day 9 and Day 14; relative to saline; FIG. 2
# Method: The B16 murine melanoma model is an accepted animal model for both solid tumor formation as well as metastasis (see e.g., Curr Protoc Immunol. 2001 May; CHAPTER 20: Unit-20.1. doi:10.1002/0471142735.im2001s39). In this study, mice were inoculated subcutaneously with 3×10^5 B16 cells on Day minus 9 (n=10 per group). Mice were treated with either saline or 5 μg GLA-SE i.m. on Day 0, Day 9 and Day 14.
# B16F10 cells [3] = experiment: B16F10 model, GLA i.t. plus anti-CD40 i.t., suboptimal doses (Example 6); type: in vivo, mice; conditions: GLA alone: 2 μg GLA-SE/2% SE i.t. on Day 8 and 15 post-tumor injection; FIG. 8B
# Method: To determine whether anti-CD40 exerted anti-tumor effects in the tumor microenvironment, tumor-bearing mice were given i.t. administrations of 2 μg GLA-SE/2% SE (or 2% SE vehicle control) on Day 8 and 15 post-tumor injection and i.t. administrations of 50 μg anti-CD40 (or 2A3 control antibody) on Day 5 and 12 post-tumor injection (FIG. 8B). Suboptimal doses for GLA and anti-CD40 were given to avoid masking of a possible synergistic effect of the combination.
# B16F10 cells [4] = experiment: B16F10 footpad model, optimal time to begin GLA administration (Example 5); type: in vivo, C57BL/6 mice; conditions: 5 μg GLA-SE/2% SE i.t. starting Day 4 post-tumor injection, every 3-4 days; FIG. 7A
# Method: To determine the optimal time to begin GLA administration, female C57BL/6 mice (n=5 per group) were inoculated with 5×10^5 B16F10 cells, subcutaneously in the right footpad on Day 0. Mice were given intratumoral (i.t.) administrations of 5 μg GLA-SE/2% SE (or 2% SE vehicle control) on Day 4, Day 9, or Day 14, and every 3-4 days thereafter until the end of study.
smiles,measurement,setting,value
"CCCCCCCCCCCCCC(=O)O[C@H](CCCCCCCCCCC)CC(=O)O[C@@H]1[C@@H](NC(=O)C[C@H](CCCCCCCCCCC)OC(=O)CCCCCCCCCCCCC)[C@H](OC[C@H]2O[C@H](O)[C@H](NC(=O)C[C@H](O)CCCCCCCCCCC)[C@@H](OC(=O)C[C@H](O)CCCCCCCCCCC)[C@@H]2O)O[C@H](CO)[C@H]1OP(=O)(O)O [GLA, glucopyranosyl lipid A]",B16F10 tumor growth,B16F10 cells [1],delayed B16F10 tumor growth
same,B16F10 tumor growth,B16F10 cells [2],delayed B16F10 tumor growth
same,percent survival,B16 melanoma cells,improved survival rate
same,tumor growth,B16F10 cells [3],delayed tumor growth
same,B16F10 tumor growth,B16F10 cells [4],delayed B16F10 tumor growth
